From US9669025B2 (INFLAMMATORY RESPONSE RESEARCH, INC., priority 2013, dated 2017)
Like-named read-outs stand apart in the source and are kept apart here.

Columns and labels:
[1] = test system: Churg-Strauss Syndrome (eosinophilic vasculitis); experiment: Example 1 case study: person with Churg-Strauss Syndrome; type: in vivo, human; details: 2010, patient history
[2] = test system: influenza; details: 2009 H1N1 pandemic; cited from earlier work
[3] = target: H1 receptor (Homo sapiens, UniProt P35367); details: acidic pH (inflamed tissue), relative to first generation molecules, cited from earlier work
Sequence of H1 receptor (P35367 whole entry): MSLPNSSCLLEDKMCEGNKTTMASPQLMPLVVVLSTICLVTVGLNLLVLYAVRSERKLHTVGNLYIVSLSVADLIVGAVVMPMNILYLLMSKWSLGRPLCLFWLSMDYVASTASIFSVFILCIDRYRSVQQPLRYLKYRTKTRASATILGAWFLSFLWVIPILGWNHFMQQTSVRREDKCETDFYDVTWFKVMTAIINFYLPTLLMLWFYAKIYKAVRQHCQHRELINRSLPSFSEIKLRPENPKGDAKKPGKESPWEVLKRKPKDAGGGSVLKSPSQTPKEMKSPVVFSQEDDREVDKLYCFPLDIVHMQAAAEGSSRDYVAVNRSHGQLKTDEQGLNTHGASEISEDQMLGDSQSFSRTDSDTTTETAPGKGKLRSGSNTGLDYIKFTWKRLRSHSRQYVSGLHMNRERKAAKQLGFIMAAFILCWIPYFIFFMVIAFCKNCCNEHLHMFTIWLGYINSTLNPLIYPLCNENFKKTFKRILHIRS

[4] = test system: histamine induced wheal and flare; details: cited from earlier work
[5] = test system: IL-4, IL-6, and IL-8; details: cited from earlier work
[6] = in vivo; cited from earlier work
[7] = test system: eosinophil migration; details: cited from earlier work
[8] = cited from earlier work
[9] = test system: human rhinovirus; details: airway epithelial cells; cited from earlier work
[10] = test system: Henoch Schonlein Purpura; experiment: Example 2 case study: person with Henoch Schonlein Purpura; type: in vivo, human; details: before the combination; ibuprofen and diphenhydramine
From the text: Case Study: person with Henoch Schonlein Purpura The patient is a person originally seen and evaluated in London, England, Feb. […] […] The ibuprofen and diphenhydramine were discontinued.

[11] = cited from earlier work; for time to steady state level: montelukast
[12] = with warfarin, theophylline, digoxin, terfenadine, oral contraceptives, or prednisone; cited from earlier work
[13] = cited from earlier work; remark: listed apart in the source

Molecule: omalizumab
- trial for severe asthma [1]: Unsuccessful

Molecule: CCOC(=O)C1=C[C@@H](OC(CC)CC)[C@H](NC(C)=O)[C@@H](N)C1 [oseltamivir]
- influenza related lower respiratory tract complications [2]: did not appear to reduce

Molecule: O=C(O)COCCN1CCN([C@H](c2ccccc2)c2ccc(Cl)cc2)CC1 [levocetirizine]
- enhanced receptor affinity over first generation mepyramine [3]: up to 5 ×
- enhanced receptor affinity over first generation mepyramine ([3]; listed as Levocetirizine): 5 ×
- potency among the five modern generation antihistamines ([4]; histamine induced wheal and flare data): most potent
- effectiveness versus fexofenadine ([4]; levocetirizine 5 mg per day vs fexofenadine 180 mg per day): more effective than fexofenadine
- inflammatory mediators, IL-4, IL-6, and IL-8 [5]: decrease
- time to steady state level [6]: 40 h
- eosinophil migration / quantity [7]: decrease
- principal side effect at higher doses ([8]; higher doses): Sedation
- doses safely administered in humans ([8]; human dosing safety studies): up to 30 mg/day
- rhinovirus-induced ICAM-1 and cytokine expression and viral replication [9]: inhibits

Molecule: CC(C)Cc1ccc(C(C)C(=O)O)cc1 (centres unmarked) [ibuprofen]
- response of recurrent Henoch Schonlein Purpura [10]: poorly responsive

Molecule: CC(C)(O)c1ccccc1CC[C@@H](SCC1(CC(=O)O)CC1)c1cccc(/C=C/c2ccc3ccc(Cl)cc3n2)c1 [montelukast]
- IV plasma concentration area under the curve profile versus oral tablet ([11]; IV 7 mg vs approved 10 mg oral tablet): comparable
- linearity of pharmacokinetics ([11]; in vivo): linear pharmacokinetics to 50 mg
- time to peak plasma concentration ([11]; in vivo): 3 to 4 h
- time to steady state level [11]: within two days
- time to steady state level ([11]; listed as Montelukast): less than two days
- effect of a standard meal on oral bioavailability and Cmax ([11]; standard meal): not affected
- drug interactions [12]: no drug interactions
- doses administered without clinically important adverse experiences ([13]; adult patients for 22 weeks): up to 200 mg/day
- doses administered without clinically important adverse experiences ([13]; short-term studies, patients for approximately one week): up to 900 mg/day

Molecule: CN(C)CCOC(c1ccccc1)c1ccccc1 [diphenhydramine]
- response of recurrent Henoch Schonlein Purpura [10]: poorly responsive
